# From patent US20080274208A1, “Water treatment containing DBNPA for use in sanitizing recreational water” (priority 2007, published 2008)
# Assays:
# [1] = tested on: four species of fungi typically found in swimming pool water; test: Model swimming pool system: viable fungi by agar plate counts (Sabaroud-Dextrose agar); format: cell-based, Paecilomyces and Trichoderma; details: Table 1; upon exceeding turbidity threshold (or at test end); DBNPA 2 ppm daily with/without oxidizer; PHMB 6 ppm
# Method: (§1) The synthetic swimming pool water samples dosed with combinations of DBNPA, hydrogen peroxide, potassium monopersulfate and/or DDAC were compared to the performance of the commercially available Baquacil® swimming pool chemical treatment system (available commercially from Arch Chemicals, Inc., Norwalk, Conn.). […] PHMB), by addition of daily or weekly doses of the biocide. Hydrogen peroxide is added monthly at a concentration of 27.5 ppm. The samples were challenged on a daily basis with eight species of bacteria and four species of fungi typically found in swimming pool water. These microorganisms include species of the fungi Paecilomyces and Trichoderma, and species of the bacteria Alcaligenes, Chryseobacterium and Sphingomonas. Each inoculation represents a total addition of 0.8×10^6 microorganisms per model apparatus. In addition, 5 ml of synthetic bather load is added to the system on a daily basis, as a nutrient source for the microorganisms present in the system. The bather load consists of carbon, nitrogen and macro/micro nutrient sources such as urea, albumin, creatinine, lactic acid, uric acid, glucuronic acid, sodium chloride, sodium sulfate, ammonium chloride, sodium bicarbonate, potassium phosphate potassium sulfate. The total number of viable bacteria and fungi present in each sample was determined weekly by conducting agar plate counts. […]
# [2] = tested on: eight species of bacteria typically found in swimming pool water; test: Model swimming pool system: viable bacteria by agar plate counts (CLED agar); format: cell-based, Alcaligenes, Chryseobacterium and Sphingomonas; details: Table 1; upon exceeding turbidity threshold (or at test end); DBNPA 2 ppm daily with/without oxidizer; PHMB 6 ppm
# Method: as §1
# [3] = tested on: eight species of bacteria and four species of fungi typically found in swimming pool water; test: Model swimming pool recirculating sand filter system: water clarity (turbidity) under daily microbial challenge; format: cell-based; details: Table 1; synthetic pool water 80-90° F, daily inoculation and bather load; DBNPA 2 ppm daily; H2O2 27.5 ppm start, 7 ppm weekly; potassium monopersulfate 12 ppm initial and weekly; PHMB 6 ppm; 88 day test
# Method: The purpose of this experiment is to evaluate the robustness or the ability of single or combinations of biocides (plus additionally any other permutations of oxidizers and/or adjuvants) to prevent inoculated microorganisms from establishing colonies in the water and sand filter media, thus preventing bio-fouling of the system.
# 800 ml of synthetic swimming pool water (water containing calcium chloride dihydrate and sodium hydrogen carbonate solution at neutral pH) was pumped through a body of swimming pool filter sand by means of a peristaltic pump. The water temperature of each system was maintained in the range of 80-90° F. The biocide 2,2-dibromo-3-nitrilopropionamide (DBNPA) was added daily at a concentration of 2 ppm. When required, oxidizer hydrogen peroxide was added at a concentration of 27.5 ppm at the start of experiment, and 7 ppm weekly thereafter, and the loss of hydrogen peroxide in each system is monitored by calorimetric assay. […]
# Model water turbidity was measured on a daily basis) using a Hach 2100P turbidimeter to measure water sample nephelometric turbidity units (NTUs). […]
# The performance of the candidate treatment regimens was determined by the number of days the water clarity was maintained below 1.0 NTU (Nephelometric Turbidity Units). […]
compound,measurement,setting,value
"N#CC(Br)(Br)C(N)=O [DBNPA, 2,2-dibromo-3-nitrilopropionamide]",Fungal Counts at Clarity of 1.0 NTU or above,[1],5 × 10^0 CFU/ml
same,Bacterial Counts at Clarity of 1.0 NTU or above,[2],1.39 × 10^5 CFU/ml
same,Number of Days of Clarity below 1.0 NTU,[3],59 days
